Test results published in patent US7968526B2, “Antisense oligonucleotides directed to ribonucleotide reductase R2 and uses thereof in the treatment of cancer” (Lorus Therapeutics Inc., priority 2003, dated 2011).
“Also recorded” adds a separate entry of the source.

How the values were obtained:
[1] = system: R3 mouse fibrosarcoma cells; test: R3 mouse fibrosarcoma tumour growth in C3H mice; format: in vivo
Description: Treatments lasted for 14 days thereafter. Anti-tumour activities were estimated by the inhibition of tumour volume, which was measured with a calliper at two-day intervals starting from day 9. Each point in FIG. 27A represents the mean tumour volume calculated from 6-7 animals per experimental group. […] SEQ ID NO:1 had significant anti-tumour activity compared to saline (P=0.0006), scrambled (P=0.0001) and mismatched (0.0002) controls.
At the end of the treatments, the animals were sacrificed, tumours were excised and their weights were measured. Each bar in FIG. 27C represents mean tumour weight and standard error calculated from 6-8 animals per experimental group. P values compared to saline were as follows: 0.5 mg/kg (P=0.04), 2 mg/kg (P=0.0001), 5 mg/kg (P=0.0015), 10 mg/kg (P=0.0001), 30 mg/kg (P=0.0001).

[2] = system: SIHA human cervical cancer cells; test: SIHA cervical tumour growth in SCID mice (3.10); format: in vivo, human cells in mice
Description: Treatments lasted for 14 days thereafter. Antitumour activities were estimated by the inhibition of tumour volume, which was measured with a caliper on four different occasions over the treatment period. Each point represents mean tumour volume calculated from 5 animals per experimental group. […] Control animals (control) received saline alone for the same period. At the end of the treatments, the animals were sacrificed, tumours were excised and their weights were measured. Each bar represents mean tumour weight calculated from 6 animals per experimental group. […] Treatments lasted for 24 days thereafter. Antitumour activities were estimated by the inhibition of tumour volume, which was measured with a caliper at two-day intervals over the treatment period. Each point represents mean tumour volume calculated from 4 animals per experimental group. […] Treatments lasted for 24 days thereafter. Antitumour activities were estimated by the inhibition of tumour volume, which was measured with a caliper at two-day intervals over the treatment period. Each point represents mean tumour volume calculated from 4 animals per experimental group. […] Each point represents mean tumour volume calculated from 5 animals per experimental group. […] Antitumour activities were estimated by the inhibition of tumour volume, which was measured with a caliper on four different occasions over 16-day period. Each point represents mean tumour volume calculated from 5 animals per experimental group. […] Antitumour activities were estimated by the inhibition of tumour volume, which was measured with a caliper at two-day intervals over the treatment period. Each point represents mean tumour volume calculated from 5 animals per experimental group. […] Antitumour activities were estimated by the inhibition of tumour volume, which was measured with a caliper at various time intervals over the span of 30 days. Each point represents mean tumour volume calculated from 6 animals per experimental group. […] Antitumour activities were estimated by the inhibition of tumour volume, which was measured with a caliper. […]

[3] = system: MDA-MB-231 human breast cancer cells; test: MDA-MB-231 breast tumour xenograft in CD-1 nude mice, combination with taxol or doxorubicin (1.7); format: in vivo, human cells in mice; settings: doxorubicin 5 mg/kg i.v. weekly
Description: After 52 days the mice were sacrificed and the tumours weighed. […] Mitoxantrone was administered intravenously once at the beginning of the treatments at a dose of 2 mg/kg (FIG. 4A) or once a week for four weeks at a reduced dose of 0.8 mg/kg (FIG. 4B). All treatments were stopped at day 50 (FIG. 4A) or 48 (FIG. 4B), respectively. […] Mitoxantrone was administered intravenously once at the beginning of the treatments at a dose of 2 mg/kg (FIG. 5A) or once a week for four weeks at a reduced dose of 0.8 mg/kg (FIG. 5B). All treatments were stopped at day 42 (FIG. 5A) or 38 (FIG. 5B), respectively. […] A2058 is a metastatic melanoma cell line. […] All treatments were stopped at day 24. […] Taxol was administered intravenously once a week at a dose of 10 mg/kg for three (FIG. 7A) or four weeks (FIG. 7C). Doxorubicin was administered intravenously once a week at a dose of 5 mg/kg for first three weeks (FIG. 7A) or for two weeks (FIG. 7C). All treatments were stopped at day 33 (FIG. 7A) or at day 26 (FIG. 7C), respectively. […] In FIG. 7C, antitumour activities were estimated by the inhibition of tumour volume, which was measured with calipers. Each point represents mean tumour volume calculated from 10 animals per experimental group. […] Taxol was administered intravenously once a week for first three weeks and intraperitoneally once a week for next two weeks at a dose of 10 mg/kg. Cisplatin was administered intravenously once a week for first three weeks and intraperitoneally once a week for next two weeks at a dose of 4 mg/kg. All treatments were stopped at day 40. Antitumour activities were estimated by the inhibition of tumour volume, which was measured with caliper. Each point represents mean tumour volume calculated from 9 animals per experimental group.

Substance: 5′-GGCTAAATCGCTCCACCAAG-3′ (all phosphorothioate, sugars by position and methylation of C not given here) [SEQ ID NO: 1, fully phosphorothioated antisense oligonucleotide that hybridizes to the coding region of R2 mRNA]
- Inhibition of tumour weight ([1]; Mouse Fibrosarcoma): ~80%
- Dose dependence of tumour weight ([1]; Mouse Fibrosarcoma in C3H mice at doses of 0.5 to 30 mg/kg): Dose-dependent decrease in tumour weight in
- Inhibition of tumour volume ([1]; Mouse Fibrosarcoma in C3H mice, Day 15 after tumour implantation): approximately 80% on Day 15 after tumour laimpntation
- Anti-tumour efficacy (tumour volume, FIG. 27A) ([1]; R3, C3H mice, 5 mg/kg i.v. every other day, 14 days): significant anti-tumour efficacy compared to saline, scrambled and mismatched controls
- Dose dependence of anti-tumour activity (FIG. 27C) ([1]; R3, C3H mice, 0.5-30 mg/kg): dose-dependent anti-tumour activity
- Inhibition of tumour weight ([2]; Human Cervical Carcinoma^2): ~90%
- Inhibition of tumour size ([2]; Human Cervical Carcinoma^2 in SCID mice, Day 22 after tumour implantation): Inhibition of tumour size by approximately 90%
- Inhibitory effect on tumour growth (tumour volume and weight, FIG. 22) ([2]; SIHA, SCID mice, 10 mg/kg i.v. every other day, 16 days): strong inhibitory effects on the growth of human cervical carcinoma
- Tumour weight as % of saline control ([3]; MDA-MB-231 (breast), CD-1, SEQ ID NO:1 10 mg/kg i.v. every other day, Taxol 10 mg/kg i.v. weekly): 12.6%
- Antitumour effect (tumour weight / volume, FIG. 7) ([3]; MDA-MB-231, CD-1 nude mice, oligonucleotides 10 mg/kg i.v. every other day, taxol 10 mg/kg): delay of tumour growth compared to saline control in all three experiments; also recorded: superior to the inhibitory effects observed with taxol or doxorubicin alone
